Measurements reported in PubChem BioAssay (NCI).
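Where inhibition never reached the appropriate level, the endpoint shown equals the highest concentration tested. Otherwise, values were interpolated linearly from a five-concentration, 48-hour dose response in 96-well plates. TGI: total growth inhibition.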

Experiments:
Assay in all cases: NCI-60 cell line screen, 48 h
ACHN renal = system: ACHN renal
SW-620 colon = system: SW-620 colon
SK-MEL-5 melanoma = system: SK-MEL-5 melanoma
HOP-62 NSCLC = system: HOP-62 NSCLC
A549 NSCLC = system: A549 NSCLC
CCRF-CEM leukemia = system: CCRF-CEM leukemia
SNB-19 CNS = system: SNB-19 CNS
SF-295 CNS = system: SF-295 CNS
A498 renal = system: A498 renal
HCT-15 colon = system: HCT-15 colon
SK-OV-3 ovarian = system: SK-OV-3 ovarian
DLD-1 colon = system: DLD-1 colon
KM12 colon = system: KM12 colon
SN12C renal = system: SN12C renal
DMS 114 small cell lung = system: DMS 114 small cell lung
UACC-62 melanoma = system: UACC-62 melanoma
RXF-631 renal = system: RXF-631 renal
RPMI-8226 leukemia = system: RPMI-8226 leukemia
SF-539 CNS = system: SF-539 CNS
786-0 renal = system: 786-0 renal
SK-MEL-2 melanoma = system: SK-MEL-2 melanoma
K-562 leukemia = system: K-562 leukemia
UO-31 renal = system: UO-31 renal
DMS 273 small cell lung = system: DMS 273 small cell lung
HOP-18 NSCLC = system: HOP-18 NSCLC
IGROV1 ovarian = system: IGROV1 ovarian
HCT-116 colon = system: HCT-116 colon
KM20L2 colon = system: KM20L2 colon
OVCAR-5 ovarian = system: OVCAR-5 ovarian
COLO 205 colon = system: COLO 205 colon
OVCAR-4 ovarian = system: OVCAR-4 ovarian
OVCAR-8 ovarian = system: OVCAR-8 ovarian
NCI-H460 lung = system: NCI-H460 lung
OVCAR-3 ovarian = system: OVCAR-3 ovarian
MOLT-4 leukemia = system: MOLT-4 leukemia
EKVX NSCLC = system: EKVX NSCLC
SNB-75 CNS = system: SNB-75 CNS
NCI-H522 lung = system: NCI-H522 lung
SF-268 CNS = system: SF-268 CNS
SNB-78 CNS = system: SNB-78 CNS
M19-MEL melanoma = system: M19-MEL melanoma
HL-60(TB) leukemia = system: HL-60(TB) leukemia
NCI-H226 lung = system: NCI-H226 lung
HT29 colon = system: HT29 colon
TK-10 renal = system: TK-10 renal
HOP-92 NSCLC = system: HOP-92 NSCLC
SK-MEL-28 melanoma = system: SK-MEL-28 melanoma
CAKI-1 renal = system: CAKI-1 renal
XF 498 CNS = system: XF 498 CNS
LXFL 529 NSCLC = system: LXFL 529 NSCLC
MALME-3M melanoma = system: MALME-3M melanoma
NCI-H23 lung = system: NCI-H23 lung
M14 melanoma = system: M14 melanoma
UACC-257 melanoma = system: UACC-257 melanoma
SR leukemia = system: SR leukemia
U251 CNS = system: U251 CNS
LOX IMVI melanoma = system: LOX IMVI melanoma
RXF 393 renal = system: RXF 393 renal
HCC-2998 colon = system: HCC-2998 colon

O=C(O)/C(Cl)=C(Cl)/C=N/NC(=O)c1cc2ccccc2cc1O
TGI (ACHN renal): > 100 µM
TGI (SW-620 colon): > 100 µM
TGI (SK-MEL-5 melanoma): 24.6 µM
TGI (HOP-62 NSCLC): > 100 µM
TGI (A549 NSCLC): > 100 µM
TGI (CCRF-CEM leukemia): 51.7 µM
TGI (SNB-19 CNS): > 100 µM
TGI (SF-295 CNS): > 100 µM
TGI (A498 renal): > 100 µM
TGI (HCT-15 colon): > 100 µM
TGI (SK-OV-3 ovarian): > 100 µM
TGI (DLD-1 colon): > 100 µM
TGI (KM12 colon): > 100 µM
TGI (SN12C renal): > 100 µM
TGI (DMS 114 small cell lung): 51.5 µM
TGI (UACC-62 melanoma): 14.6 µM
TGI (RXF-631 renal): > 100 µM
TGI (RPMI-8226 leukemia): > 100 µM
TGI (SF-539 CNS): > 100 µM
TGI (786-0 renal): > 100 µM
TGI (SK-MEL-2 melanoma): 79.3 µM
TGI (K-562 leukemia): > 100 µM
TGI (UO-31 renal): 6.36 µM
TGI (DMS 273 small cell lung): 45.2 µM
TGI (HOP-18 NSCLC): 80.5 µM
TGI (IGROV1 ovarian): > 100 µM
TGI (HCT-116 colon): > 100 µM
TGI (KM20L2 colon): 87.2 µM
TGI (OVCAR-5 ovarian): 61.5 µM
TGI (COLO 205 colon): > 100 µM
TGI (OVCAR-4 ovarian): 72 µM
TGI (OVCAR-8 ovarian): > 100 µM
TGI (NCI-H460 lung): > 100 µM
TGI (OVCAR-3 ovarian): > 100 µM
TGI (MOLT-4 leukemia): 34.9 µM
TGI (EKVX NSCLC): > 100 µM
TGI (SNB-75 CNS): > 100 µM
TGI (NCI-H522 lung): 77 µM
TGI (SF-268 CNS): > 100 µM
TGI (SNB-78 CNS): > 100 µM
TGI (M19-MEL melanoma): 75.4 µM
TGI (HL-60(TB) leukemia): > 100 µM
TGI (NCI-H226 lung): 87.2 µM
TGI (HT29 colon): > 100 µM
TGI (TK-10 renal): > 100 µM
TGI (HOP-92 NSCLC): > 100 µM
TGI (SK-MEL-28 melanoma): > 100 µM
TGI (CAKI-1 renal): > 100 µM
TGI (XF 498 CNS): > 100 µM
TGI (LXFL 529 NSCLC): > 100 µM
TGI (MALME-3M melanoma): > 100 µM
TGI (NCI-H23 lung): 41.2 µM
TGI (M14 melanoma): 56 µM
TGI (UACC-257 melanoma): 65.6 µM
TGI (SR leukemia): 39.3 µM
TGI (U251 CNS): > 100 µM

O=S(O)CCCSSSCCCS(=O)O
TGI (ACHN renal): > 100 µM
TGI (HOP-62 NSCLC): > 100 µM
TGI (CCRF-CEM leukemia): > 100 µM
TGI (SNB-19 CNS): > 100 µM
TGI (A498 renal): > 100 µM
TGI (SK-OV-3 ovarian): > 100 µM
TGI (DLD-1 colon): > 100 µM
TGI (KM12 colon): > 100 µM
TGI (SN12C renal): > 100 µM
TGI (DMS 114 small cell lung): > 100 µM
TGI (UACC-62 melanoma): > 100 µM
TGI (RXF-631 renal): > 100 µM
TGI (SF-539 CNS): > 100 µM
TGI (SK-MEL-2 melanoma): > 100 µM
TGI (K-562 leukemia): > 100 µM
TGI (UO-31 renal): > 100 µM
TGI (HCT-116 colon): > 100 µM
TGI (KM20L2 colon): > 100 µM
TGI (OVCAR-5 ovarian): > 100 µM
TGI (OVCAR-4 ovarian): > 100 µM
TGI (NCI-H460 lung): > 100 µM
TGI (OVCAR-3 ovarian): > 100 µM
TGI (LOX IMVI melanoma): > 100 µM
TGI (MOLT-4 leukemia): > 100 µM
TGI (EKVX NSCLC): > 100 µM
TGI (SNB-75 CNS): > 100 µM
TGI (NCI-H522 lung): > 100 µM
TGI (RXF 393 renal): > 100 µM
TGI (SF-268 CNS): > 100 µM
TGI (SNB-78 CNS): > 100 µM
TGI (M19-MEL melanoma): > 100 µM
TGI (HL-60(TB) leukemia): > 100 µM
TGI (HT29 colon): > 100 µM
TGI (TK-10 renal): > 100 µM
TGI (SK-MEL-28 melanoma): > 100 µM
TGI (XF 498 CNS): > 100 µM
TGI (LXFL 529 NSCLC): > 100 µM
TGI (MALME-3M melanoma): > 100 µM
TGI (NCI-H23 lung): > 100 µM
TGI (M14 melanoma): > 100 µM
TGI (UACC-257 melanoma): > 100 µM
TGI (HCC-2998 colon): > 100 µM
TGI (SR leukemia): > 100 µM
TGI (U251 CNS): > 100 µM
